Experimental data published in US10104891B2 (priority 2014, dated 2018).

Assays:
Assay type in all cases: in vivo
[1] = tested on: Pseudoperonospora cubensis; assay: Test 2: control effect against cucumber downy mildew; conditions: control value vs untreated section; for pest or weed control at 4 µg/mL: Pseudoperonospora cubensis, 120 h
Protocol: (§1) A 10% wettable powder created according to the Pharmaceutical Formulation Example 1 was diluted with a Tween20 solution prepared to a concentration of 1/5000, then the compound of formula [1] was prepared to a concentration of 4 ppm. Further, the compound of formula [1] in Test 4 was adjusted to a concentration of 1,000 ppm.
<Test 2 Test of Control Effect Against Cucumber Downy Mildew>
(§2) Test suspension was applied to cucumber at the 2 leaf stage (species: Sagami hanjiro) in an amount of 20 ml per seedling. One day after application, zoospore suspension of Pseudoperonospora cubensis adjusted to a concentration of 1.0×10^4 units/ml was misted/inoculated, and the seedlings were incubated in a moist chamber adjusted to 22° C. for 16 hr. Then, the onset of the disease was induced in the chamber, and the lesion area rate on the leaves 5 days after inoculation was investigated to compute the control value using the formula below. control value={1−onset area rate of the leaves that were applied the test agent/onset area rate of untreated leaves}×100 Computational formula of the control value: […]

[2] = tested on: Plasmopara viticola; assay: Test 3: control effect against grape downy mildew; conditions: control value vs untreated section; for pest or weed control at 4 µg/mL: Plasmopara viticola, 120 h
Protocol: as §1
<Test 3 Test of Control Effect Against Grape Downy Mildew>
as §2, with “grape seedling” for “cucumber at the 2 leaf stage”, “Neomuscat)” for “Sagami hanjiro)”, “Plasmopara viticola” for “Pseudoperonospora cubensis”

[3] = tested on: Phytophthora infestans; assay: whole plant or invertebrate; conditions: for control value (Test 1): tomato late blight, control value vs untreated section; for pest or weed control at 4 µg/mL: Phytophthora infestans, in Solanum lycopersicum, 96 h, read-out: control value (Test 1)

| SMILES | control value (Test 2) [1] | control value (Test 3) [2] | control value (Test 1) [3] | pest or weed control at 4 µg/mL [1] [%] | pest or weed control at 4 µg/mL [2] [%] | pest or weed control at 4 µg/mL [3] [%] |
| --- | --- | --- | --- | --- | --- | --- |
| CC1OC(c2csc(C3CCN(C(=O)Cn4nc(C(F)F)cc4C(F)F)CC3)n2)OCc2ccccc21 (mixture of isomers) [Compound 1-75] | 100 | 100 | 100 | – | – | – |
| Cc1cc(C(F)(F)F)nn1CC(=O)N1CCC(c2nc(C3OCc4ccccc4CO3)cs2)CC1 [Compound 1-1] | 100 | 100 | 100 | – | – | – |
| Cc1cc(C(F)(F)F)nn1CC(=O)N1CCC(c2nc(C3OCc4cccc(F)c4CO3)cs2)CC1 (stereo not drawn) [Compound 1-2] | 100 | 100 | 100 | – | – | – |
| Cc1cc2c(cc1C)COC(c1csc(C3CCN(C(=O)Cn4nc(C(F)(F)F)cc4C)CC3)n1)OC2 [Compound 1-4] | 100 | 100 | 100 | – | – | – |
| Cc1cc(C(F)(F)F)nn1CC(=O)N1CCC(c2nc(C3OCc4cc(Cl)c(Cl)cc4CO3)cs2)CC1 [Compound 1-5] | 100 | 100 | 100 | – | – | – |
| CCS(=O)(=O)Oc1cccc2c1COC(c1csc(C3CCN(C(=O)Cn4nc(C(F)(F)F)cc4C)CC3)n1)OC2 (stereo not drawn) [Compound 1-7] | 100 | 100 | 100 | – | – | – |
| Cc1cc(C(F)(F)F)nn1CC(=O)N1CCC(c2nc(C3OCc4ccc(OS(C)(=O)=O)cc4CO3)cs2)CC1 (stereo not drawn) [Compound 1-9] | 80 | 100 | 100 | – | – | – |
| Cc1cc(C(F)(F)F)nn1CC(=O)N1CCC(c2nc(C3OCc4cc5ccccc5cc4CO3)cs2)CC1 [Compound 1-10, 4-[4-(1,5-dihydro-3H-2,4-naphthodioxepin-3-yl)-2-thiazolyl]-1-[2-[5-methyl-3-(trifluoromethyl)-1H-pyrazole-1-yl]acetyl]piperidine] | 100 | 100 | 100 | – | – | – |
| Cc1cc(C(F)(F)F)nn1CC(=O)N1CCC(c2nc(C3OCc4cccc([N+](=O)[O-])c4CO3)cs2)CC1 (stereo not drawn) [Compound 1-12] | 100 | 100 | 100 | – | – | – |
| Cc1cc(C(F)(F)F)nn1CC(=O)N1CCC(c2nc(C3OCc4cccc(OS(=O)(=O)C5CC5)c4CO3)cs2)CC1 (stereo not drawn) [Compound 1-13] | 100 | 100 | 100 | – | – | – |
| Cc1cccc2c1COC(c1csc(C3CCN(C(=O)Cn4nc(C(F)(F)F)cc4C)CC3)n1)OC2 (stereo not drawn) [Compound 1-14] | 100 | 100 | 100 | – | – | – |
| Cc1cc(C(F)(F)F)nn1CC(=O)N1CCC(c2nc(C3OCc4ccc(C(F)(F)F)cc4CO3)cs2)CC1 (stereo not drawn) [Compound 1-16] | 100 | 100 | 100 | – | – | – |
| Cc1cc(C(F)(F)F)nn1CC(=O)N1CCC(c2nc(C3OCc4c(F)c(F)c(F)c(F)c4CO3)cs2)CC1 [Compound 1-17] | 100 | 100 | 100 | – | – | – |
| Cc1cc(C(F)(F)F)nn1CC(=O)N1CCC(c2nc(C3OCc4ccccc4C(C)O3)cs2)CC1 (stereo not drawn) [Compound 1-18] | 100 | 100 | 100 | – | – | – |
| Cc1ccc(OS(C)(=O)=O)c2c1COC(c1csc(C3CCN(C(=O)Cn4nc(C(F)(F)F)cc4C)CC3)n1)OC2 (stereo not drawn) [Compound 1-19] | 100 | 100 | 100 | – | – | – |
| Cc1ccc2c(c1)COC(c1csc(C3CCN(C(=O)Cn4nc(C(F)(F)F)cc4C)CC3)n1)OC2 (stereo not drawn) [Compound 1-20] | 100 | 100 | 100 | – | – | – |
| COc1ccc(Br)c2c1COC(c1csc(C3CCN(C(=O)Cn4nc(C(F)(F)F)cc4C)CC3)n1)OC2 (stereo not drawn) [Compound 1-24] | 100 | 100 | 100 | – | – | – |

| SMILES | control value (Test 2) [1] | control value (Test 3) [2] | control value (Test 1) [3] | pest or weed control at 4 µg/mL [1] [%] | pest or weed control at 4 µg/mL [2] [%] | pest or weed control at 4 µg/mL [3] [%] |
| --- | --- | --- | --- | --- | --- | --- |
| CCCCCCCCS(=O)(=O)Oc1cccc2c1COC(c1csc(C3CCN(C(=O)Cn4nc(C(F)(F)F)cc4C)CC3)n1)OC2 (stereo not drawn) [Compound 1-25] | 100 | 100 | 100 | – | – | – |
| COc1ccc(OS(C)(=O)=O)c2c1COC(c1csc(C3CCN(C(=O)Cn4nc(C(F)(F)F)cc4C)CC3)n1)OC2 (stereo not drawn) [Compound 1-26] | 100 | 100 | 100 | – | – | – |
| Cc1cc(C(F)(F)F)nn1CC(=O)N1CCC(c2nc(C3OCc4ccc([N+](=O)[O-])cc4CO3)cs2)CC1 (stereo not drawn) [Compound 1-27] | 100 | 100 | 100 | – | – | – |
| Cc1cc(C(F)(F)F)nn1CC(=O)N1CCC(c2nc(C3OCc4cccc(OS(=O)(=O)C(C)C)c4CO3)cs2)CC1 (stereo not drawn) [Compound 1-28] | 100 | 100 | 100 | – | – | – |
| CCS(=O)(=O)Oc1ccc2c(c1)COC(c1csc(C3CCN(C(=O)Cn4nc(C(F)(F)F)cc4C)CC3)n1)OC2 (stereo not drawn) [Compound 1-29] | 90 | 100 | 100 | – | – | – |
| Cc1cc(C(F)(F)F)nn1CC(=O)N1CCC(c2nc(C3OCc4cccc(OS(=O)(=O)CCC(F)(F)F)c4CO3)cs2)CC1 (stereo not drawn) [Compound 1-30] | 100 | 100 | 100 | – | – | – |
| Cc1cc(C(F)(F)F)nn1CC(=O)N1CCC(c2nc(C3OCc4cc5c(cc4CO3)CCC5)cs2)CC1 [Compound 1-31] | 100 | 100 | 100 | – | – | – |
| O=C(Cn1nc(C(F)F)cc1C(F)F)N1CCC(c2nc(C3OCc4cccc(F)c4CO3)cs2)CC1 (stereo not drawn) [Compound 1-35] | 100 | 100 | 100 | – | – | – |
| COC(=O)Oc1cccc2c1COC(c1csc(C3CCN(C(=O)Cn4nc(C(F)(F)F)cc4C)CC3)n1)OC2 (stereo not drawn) [Compound 1-37] | 100 | 100 | 100 | – | – | – |
| CS(=O)(=O)Oc1cccc2c1COC(c1csc(C3CCN(C(=O)Cn4nc(C(F)F)cc4C(F)F)CC3)n1)OC2 (stereo not drawn) [Compound 1-38, 4-[4-(6-methylsulfonyloxy-1,5-dihydro-3H-2,4-benzodioxepin-3-yl)-2-thiazolyl]-1-[2-[3,5-bis(difluoromethyl)-1H-pyrazole-1-yl]acetyl]piperidine] | – | – | – | 100 | 100 | 100 |
| COc1ccc(OS(C)(=O)=O)c2c1COC(c1csc(C3CCN(C(=O)Cn4nc(C(F)F)cc4C(F)F)CC3)n1)OC2 (stereo not drawn) [Compound 1-39, 4-[4-(6-methoxy-9-methylsulfonyloxy-1,5-dihydro-3H-2,4-benzodioxepin-3-yl)-2-thiazolyl]-1-[2-[3,5-bis(difluoromethyl)-1H-pyrazole-1-yl]acetyl]piperidine] | – | – | – | 100 | 100 | 100 |
| O=C(Cn1nc(C(F)(F)F)cc1C(F)(F)F)N1CCC(c2nc(C3OCc4cccc(F)c4CO3)cs2)CC1 (stereo not drawn) [Compound 1-41] | 100 | 100 | 100 | – | – | – |
| CS(=O)(=O)Oc1cccc2c1COC(c1csc(C3CCN(C(=O)Cn4nc(C(F)(F)F)cc4C(F)(F)F)CC3)n1)OC2 (stereo not drawn) [Compound 1-42, 4-[4-(6-methylsulfonyloxy-1,5-dihydro-3H-2,4-benzodioxepin-3-yl)-2-thiazolyl]-1-[2-[3,5-bis(trifluoromethyl)-1H-pyrazole-1-yl]acetyl]piperidine] | – | – | – | 100 | 100 | 100 |
| Cc1cc(C(F)(F)F)nn1CC(=O)N1CCC(c2nc(C3OCc4cccc(NS(C)(=O)=O)c4CO3)cs2)CC1 (stereo not drawn) [Compound 1-43] | 100 | 100 | 80 | – | – | – |
| COc1ccc([N+](=O)[O-])c2c1COC(c1csc(C3CCN(C(=O)Cn4nc(C(F)(F)F)cc4C)CC3)n1)OC2 (stereo not drawn) [Compound 1-46] | 100 | 100 | 100 | – | – | – |
| Cc1cc(C(F)(F)F)nn1CC(=O)N1CCC(c2nc(C3OCc4cccc(OS(=O)(=O)c5ccccc5)c4CO3)cs2)CC1 (stereo not drawn) [Compound 1-48] | 100 | 100 | 100 | – | – | – |
| Cc1cc(C(F)(F)F)nn1CC(=O)N1CCC(c2nc(C3OCc4cccc(CO)c4CO3)cs2)CC1 (stereo not drawn) [Compound 1-52] | 100 | 100 | 100 | – | – | – |
